Laboratory results published in patent US8304539B2, “Fused heteroaryl modulators of glucocorticoid receptor, AP-1, and/or NF-κB activity and use thereof” (Bristol-Myers Squibb Company, priority 2008, dated 2012).

target: T1, human full-length glucocorticoid receptor (Homo sapiens, UniProt P04150); assay: GR binding Assay II (fluorescence polarization competitor assay); conditions: given where AP-1 EC50 is greater than 1 uM and/or maximal inhibition is less than 20%; read-out: GR (Ki, nM) (measured in GR binding Assay II)
T1 construct: recombinantly expressed human full-length glucocorticoid receptor; purchased PanVera Co., Madison, Wis; P2816
T1 sequence (P04150 1-777): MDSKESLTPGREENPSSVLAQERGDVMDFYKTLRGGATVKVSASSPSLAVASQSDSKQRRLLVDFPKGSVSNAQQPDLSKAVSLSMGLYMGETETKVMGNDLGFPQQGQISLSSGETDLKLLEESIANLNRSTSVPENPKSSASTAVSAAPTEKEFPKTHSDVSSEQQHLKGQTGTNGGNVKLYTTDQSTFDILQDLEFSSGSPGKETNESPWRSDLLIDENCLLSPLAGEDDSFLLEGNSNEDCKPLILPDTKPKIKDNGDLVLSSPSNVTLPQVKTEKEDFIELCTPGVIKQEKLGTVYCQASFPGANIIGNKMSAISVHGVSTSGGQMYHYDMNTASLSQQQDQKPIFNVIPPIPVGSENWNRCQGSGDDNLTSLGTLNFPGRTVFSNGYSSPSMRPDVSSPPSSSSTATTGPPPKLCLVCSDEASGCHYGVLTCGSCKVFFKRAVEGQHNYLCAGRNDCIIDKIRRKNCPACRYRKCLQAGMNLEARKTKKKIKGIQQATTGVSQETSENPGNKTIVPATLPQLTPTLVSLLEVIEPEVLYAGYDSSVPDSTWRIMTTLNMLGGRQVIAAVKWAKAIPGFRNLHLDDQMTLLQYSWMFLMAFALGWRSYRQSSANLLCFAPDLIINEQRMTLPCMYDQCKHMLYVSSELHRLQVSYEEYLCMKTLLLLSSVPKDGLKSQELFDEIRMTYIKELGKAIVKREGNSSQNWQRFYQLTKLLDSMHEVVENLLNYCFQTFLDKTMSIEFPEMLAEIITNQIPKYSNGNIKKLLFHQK
Description: Glucocorticoid Receptor Binding Assay (II)
In order to measure the binding of compounds on the glucocorticoid receptor a commercially available kit was used (Glucocorticoid receptor competitor assay kit, PanVera Co., Madison, Wis., P2816). Briefly, a cell lysate containing recombinantly expressed human full-length glucocorticoid receptor was mixed with a fluorescently labeled glucocorticoid (1 nM Fluormone GS1) in the presence or absence of test compound. After one hour at room temperature, the fluorescence polarization (FP) of the samples were measured. The FP of a mixture of receptor, fluorescent probe (i.e. Fluormone GS1) and 1 mM dexamethasone represented background fluorescence or 100% inhibition, whereas, the FP of the mixture without dexamethasone was taken to be 100% binding. The percentage inhibition of test molecules were then compared to the sample with 1 mM dexamethasone and expressed as % relative binding activity with dexamethasone being 100% and no inhibition is 0%. Test molecules were analyzed in the concentration range from 2.4 nM to 40 microMolar.

SMILES | Ki [nM]
Cc1ccc2c(n1)Oc1nc(-c3ccc(OC(C)C)nc3)ccc1[C@H]2C(C)(C)C(=O)Nc1nncs1 [Example 74] | 27.6
CC(C)(C(=O)Nc1nncs1)C1c2ccncc2Oc2nc(-c3ccc(C(=O)N4CCOCC4)cc3)ccc21 (stereo not drawn) [Example 2, 2-methyl-2-(2-(4-(4-morpholinylcarbonyl)phenyl)-5H-pyrido[4′,3′:5,6]pyrano[2,3-b]pyridin-5-yl)-N-1,3,4-thiadiazol-2-ylpropanamide] | 199
Cc1ccc2c(n1)Oc1nc(-c3ccc(OC(C)(C)C)cc3)ccc1[C@H]2C(C)(C)C(=O)Nc1nncs1 [Example 79] | 40.5
CN(C)C(=O)c1ccc(-c2ccc3c(n2)Oc2nc(-c4ccccc4)ccc2C3C(C)(C)C(=O)Nc2nncs2)cc1 (stereo not drawn) [Example 65, 4-(5-(1,1-dimethyl-2-oxo-2-(1,3,4-thiadiazol-2-ylamino)ethyl)-8-phenyl-5H-pyrido[3′,2′:5,6]pyrano[2,3-b]pyridin-2-yl)-N,N-dimethylbenzamide] | 657
CN(C)C(=O)c1ccc(-c2ccc3c(n2)Oc2nc(N4CCCC4)ccc2C3C(C)(C)C(=O)Nc2nncs2)cc1 (stereo not drawn) [Example 70, 4-(5-(1,1-dimethyl-2-oxo-2-(1,3,4-thiadiazol-2-ylamino)ethyl)-8-(1-pyrrolidinyl)-5H-pyrido[3′,2′:5,6]pyrano[2,3-b]pyridin-2-yl)-N,N-dimethylbenzamide] | 385
CSc1ccc(-c2ccc3c(n2)Oc2nc(C)ccc2[C@@H]3C(C)(C)C(=O)Nc2nncs2)cc1 [Example 29] | 18.9
Cc1ccc2c(n1)Oc1nc(-c3ccc(C(=O)N(C)C)cc3)ccc1[C@H]2C(C)(C)C(=O)Nc1nnc(C(=O)NC2CC2)s1 [Example 43] | 11.6
CCN(C)C(=O)c1ccc(-c2ccc3c(n2)Oc2nc(C)ccc2[C@@H]3C(C)(C)C(=O)Nc2nnc(C(=O)N(C)C)s2)cc1 [Example 47] | 149
CNC(=O)c1nnc(NC(=O)C(C)(C)[C@H]2c3ccc(C)nc3Oc3nc(-c4ccc(C(=O)N(C)C)cc4)ccc32)s1 [Example 45] | 134
Cc1ccc2c(n1)Oc1nc(-c3ccc(OC4CCCC4)cc3)ccc1[C@H]2C(C)(C)C(=O)Nc1nncs1 [Example 75] | 13.5
Cc1ccc2c(n1)Oc1nc(-c3ccc(C(=O)N4CCC[C@@H]4C(N)=O)cc3)ccc1[C@H]2C(C)(C)C(=O)Nc1nnc(C)s1 [Example 91] | 122
Cc1ccc2c(n1)Oc1nc(-c3ccc(S(=O)(=O)C(C)C)cc3)ccc1[C@H]2C(C)(C)C(=O)Nc1nncs1 [Example 83] | 25.2
Cc1ccc2c(n1)Oc1nc(-c3ccc(C(=O)N(C)C)cc3)ccc1[C@H]2C(C)(C)C(=O)Nc1ncc(C(=O)N2CCOCC2)s1 [Example 52] | 411
CNC(=O)c1cnc(NC(=O)C(C)(C)[C@H]2c3ccc(C)nc3Oc3nc(-c4ccc(C(=O)N(C)C)cc4)ccc32)s1 [Example 51] | 423
CCN(C)C(=O)c1ccc(-c2ccc3c(n2)Oc2c(ccc[n+]2[O-])C3C(C)(C)C(=O)Nc2nncs2)cc1 (stereo not drawn) [Example 84, 4-(5-(1,1-dimethyl-2-oxo-2-(1,3,4-thiadiazol-2-ylamino)ethyl)-9-oxido-5H-pyrido[3′,2′:5,6]pyrano[2,3-b]pyridin-2-yl)-N-ethyl-N-methylbenzamide] | 1150
Cc1ccc2c(n1)Oc1nc(-c3ccc(OC(F)(F)F)cc3)ccc1[C@H]2C(C)(C)C(=O)Nc1nncs1 [Example 24] | 2.66
CCSc1ccc(-c2ccc3c(n2)Oc2nc(C)ccc2[C@@H]3C(C)(C)C(=O)Nc2nncs2)cc1 [Example 78] | 2.15
Cc1ccc2c(n1)Oc1nc(-c3ccc(CC(C)C)cc3)ccc1[C@H]2C(C)(C)C(=O)Nc1nncs1 [Example 77] | 2.53
CC(C)(C(=O)Nc1nnc(C(=O)NC2CC2)s1)C1c2cccnc2Oc2nc(-c3ccc(C(=O)N4CCOCC4)cc3)ccc21 (stereo not drawn) [Example 6] | 59
CCN(C)C(=O)c1ccc(-c2ccc3c(n2)Oc2nc(C)ccc2[C@@H]3C(C)(C)C(=O)Nc2nnc(C(=O)NCCO)s2)cc1 [Example 85] | 67.2
Cc1ccc2c(n1)Oc1nc(Cl)ccc1C2C(C)(C)C(=O)Nc1nncs1 (stereo not drawn) [Example 19] | 269
Cc1ccc2c(n1)Oc1nc(-c3ccc(C(=O)N4CCCC4)c(F)c3)ccc1[C@H]2C(C)(C)C(=O)Nc1nncs1 [Example 28] | 14.2
CCN(C)C(=O)c1ccc(-c2ccc3c(n2)Oc2ncccc2C3C(C)(C)C(=O)Nc2nnc(C(=O)NC3CC3)s2)cc1 (stereo not drawn) [Example 7] | 65.6
CN(C)C(=O)c1ccc(-c2ccc3c(n2)Oc2nc(N4CCOCC4)ccc2C3C(C)(C)C(=O)Nc2nncs2)cc1 (stereo not drawn) [Example 69, 4-(5-(1,1-dimethyl-2-oxo-2-(1,3,4-thiadiazol-2-ylamino)ethyl)-8-(4-morpholinyl)-5H-pyrido[3′,2′:5,6]pyrano[2,3-b]pyridin-2-yl)-N,N-dimethylbenzamide] | 68.9
